Experimental data reported in patent US20020086278A1, “CHROMOGENIC MEDIA CONTAINING BLOOD OR HEMIN” (priority 1999, published 2002).
Where two headings read alike, the source gives them in different places.

Experiments:
[1] = tested on: E. coli (non-O157) (esco); format: cell-based; conditions: for Colony Color (Summary): chromogenic TSA II with 5% Sheep Blood, 0.1 g/l, 3 strains tested
cakr 34135 = test: Example 3: colony color on chromogenic TSA II with 5% sheep blood (chromogen in medium); format: cell-based
[2] = tested on: Klebsiella pneumoniae (klpn); test: as above; format: cell-based; conditions: for Colony Color (Summary): chromogenic TSA II with 5% Sheep Blood, 0.1 g/l, 3 strains tested; for Colony Color: CO2
Candida albicans (caal) = test: as above; format: cell-based; conditions: for Colony Color: caal 10231; for Colony Color (Summary): chromogenic TSA II with 5% Sheep Blood, 0.1 g/l, 2 strains tested
Escherichia coli 25922 = test: Example 1: growth and colony color on plates surface-spread with chromogen; format: cell-based; conditions: E. coli 25922; for Substrates Producing Color: Summary of Table I
[3] = tested on: Staphylococcus Coag Neg (step); test: Example 3: colony color on chromogenic TSA II with 5% sheep blood (chromogen in medium); format: cell-based; conditions: for Colony Color: 21 h; for Colony Color on Various Chromogenic TSA II with 5% Sheep Blood: 18 h
S pyogenes (stpy) = test: as above; format: cell-based; conditions: for Colony Color: 21 h; for Colony Color on Various Chromogenic TSA II with 5% Sheep Blood: 18 h
[4] = tested on: Branhamella catarrhalis (brca); test: as above; format: cell-based; conditions: for Colony Color: CO2; for Colony Color (Summary): chromogenic TSA II with 5% Sheep Blood, 0.1 g/l, 2 strains tested
[5] = tested on: Pseudomonas aeruginosa (psae); test: as above; format: cell-based; conditions: for Colony Color (Summary): chromogenic TSA II with 5% Sheep Blood, 0.1 g/l, 3 strains tested; for Colony Color: CO2
[6] = tested on: Streptococcus agalactiae (stag); test: as above; format: cell-based; conditions: for Colony Color (Summary): chromogenic TSA II with 5% Sheep Blood, 0.1 g/l, 3 strains tested
E. coli 25922 = test: Example 2: effect of incubation conditions on colony color formation; format: cell-based, Escherichia coli; conditions: 0.004 g/plate
[7] = tested on: Staphylococcus aureus (stau); test: Example 3: colony color on chromogenic TSA II with 5% sheep blood (chromogen in medium); format: cell-based; conditions: for Colony Color (Summary): chromogenic TSA II with 5% Sheep Blood, 0.1 g/l, 5 strains tested
E. faecium (enfu) = test: as above; format: cell-based; conditions: for Colony Color (Summary): chromogenic TSA II with 5% Sheep Blood, 0.1 g/l, 1 strain tested
[8] = tested on: Gardnerella vaginalis 14019; test: Example 1: growth and colony color on plates surface-spread with chromogen; format: cell-based; conditions: Summary of Table I; G. vaginalis 14014
milu 9341 = test: Example 3: colony color on chromogenic TSA II with 5% sheep blood (chromogen in medium); format: cell-based
Salmonella spp. (sasp) = format: cell-based; conditions: for Colony Color (Summary): chromogenic TSA II with 5% Sheep Blood, 0.1 g/l, 2 strains tested; for Colony Color: CO2
[9] = tested on: Citrobacter freundii (cifr); test: Example 3: colony color on chromogenic TSA II with 5% sheep blood (chromogen in medium); format: cell-based; conditions: for Colony Color (Summary): chromogenic TSA II with 5% Sheep Blood, 0.1 g/l, 2 strains tested; for Colony Color: CO2
[10] = tested on: Streptococcus pneumoniae 6303; test: Example 1: growth and colony color on plates surface-spread with chromogen; format: cell-based; conditions: TSA II 5SB; S. pneu: 6303
[11] = tested on: Serratia marcescens (sema); test: Example 3: colony color on chromogenic TSA II with 5% sheep blood (chromogen in medium); format: cell-based; conditions: for Colony Color (Summary): chromogenic TSA II with 5% Sheep Blood, 0.1 g/l, 1 strain tested; for Colony Color: sema 13880, CO2
S. pneumoniae (stpn) = test: as above; format: cell-based; conditions: for Colony Color (Summary): chromogenic TSA II with 5% Sheep Blood, 0.1 g/l, 6 strains tested; for Colony Color on Various Chromogenic TSA II with 5% Sheep Blood: 18 h
S. agalactiae 12386 = test: Example 2: effect of incubation conditions on colony color formation; format: cell-based, Streptococcus agalactiae; conditions: 0.004 g/plate, 24 h, CO2
[12] = tested on: Branhamella catarrhalis 25238; test: Example 1: growth and colony color on plates surface-spread with chromogen; format: cell-based; conditions: TSA Plain; B. catt 25258
[13] = TSA II 5% Sheep Blood, 24 h, air
[14] = TSA II 5% Sheep Blood, 5 d, ANA

## OC[C@H]1O[C@@H](Oc2c[nH]c3ccc(Br)c(Cl)c23)[C@H](O)[C@@H](O)[C@H]1O [X-Gal, 5-Br-4-Cl-3-indolyl-β-D-galactopyranoside]
[1]
  Colony Color (Summary): +
[1]; esco 33605, CO2, 21 h
  Colony Color: gb
Cakr 34135; CO2, 21 h
  Colony Color: 0
[2]
  Colony Color (Summary): +
[2]; klpn 13883, 21 h
  Colony Color: gb
[2]; klpn 33606, 21 h
  Colony Color: gb
Candida albicans (caal); CO2, 24 h
  Colony Color: 0
Candida albicans (caal); air, 24 h
  Colony Color: 0
Candida albicans (caal)
  Colony Color (Summary): 0
Escherichia coli 25922; Choc II
  Color: blue
Escherichia coli 25922
  Substrates Producing Color: X-Gal
Escherichia coli 25922; TSA II 5SB
  Color: blue
Escherichia coli 25922; TSA Plain
  Color: blue
[3]; step 12228, CO2
  Colony Color: 0
[3]; step 12228, air
  Colony Color: 0
[3]; step cdc1, CO2
  Colony Color: 0
[3]; step cdc1, air
  Colony Color: 0
[3]; step cdc2, CO2
  Colony Color: 0
[3]; step cdc2, air
  Colony Color: 0
[3]; step cdc4, CO2
  Colony Color: 0
[3]; step cdc4, air
  Colony Color: 0
S pyogenes (stpy); chromogenic TSA II with 5% Sheep Blood, 0.1 g/l, 6 strains tested
  Colony Color (Summary): 0
S pyogenes (stpy); stpy 1027, CO2
  Colony Color: 0
S pyogenes (stpy); stpy 1028, CO2
  Colony Color: 0
S pyogenes (stpy); stpy 1029, CO2
  Colony Color: 0
S pyogenes (stpy); stpy 1030, CO2
  Colony Color: 0
S pyogenes (stpy); stpy 19615, CO2
  Colony Color: 0
S pyogenes (stpy); stpy 19615, air
  Colony Color: 0
S pyogenes (stpy); stpy 49117, CO2
  Colony Color: 0
S pyogenes (stpy); stpy 49117, air
  Colony Color: 0
S pyogenes (stpy); stpy 51339, CO2
  Colony Color: 0
S pyogenes (stpy); stpy 51339, air
  Colony Color: 0
[4]; brca 25238, 21 h
  Colony Color: 0
[4]; brca 25240, 21 h
  Colony Color: 0
[4]
  Colony Color (Summary): 0
[5]
  Colony Color (Summary): 0
[5]; psae 9027, 21 h
  Colony Color: 0
[5]; psae 15442, 21 h
  Colony Color: 0
[5]; psae 33607, 21 h
  Colony Color: 0
[6]
  Colony Color (Summary): 0
[6]; stag 4768, CO2, 21 h
  Colony Color: 0
[6]; stag 4768, air, 21 h
  Colony Color: 0
[6]; stag 12386, CO2, 21 h
  Colony Color: 0
[6]; stag 12386, CO2, 24 h
  Colony Color: 0
[6]; stag 12386, air, 24 h
  Colony Color: 0
E. coli 25922; Chocolate II Agar, 24 h, air
  Colony Color: blue (d)
E. coli 25922; [13]
  Colony Color: blue (d)
E. coli 25922; [14]
  Colony Color: blue (d)
E. coli 25922; TSA II 5% Sheep Blood, 5 d, MA
  Colony Color: blue (d)
[7]
  Colony Color (Summary): 0
[7]; stau 1006, CO2, 21 h
  Colony Color: 0
[7]; stau 1007, CO2, 21 h
  Colony Color: 0
[7]; stau 1008, CO2, 21 h
  Colony Color: 0
[7]; stau 1009, CO2, 21 h
  Colony Color: 0
[7]; stau 25923, CO2, 24 h
  Colony Color: 0
[7]; stau 25923, air, 24 h
  Colony Color: 0
E. faecium (enfu); E. faecium (ATCC 49032)
  Colony Color: dark blue
E. faecium (enfu)
  Colony Color (Summary): +
E. faecium (enfu); enfu 49032, CO2, 21 h
  Colony Color: gb
E. faecium (enfu); enfu 49032, air, 21 h
  Colony Color: db
[8]
  Substrates Producing Growth Inhibition: X-Gal
Milu 9341; CO2, 21 h
  Colony Color: 0
Salmonella spp. (sasp)
  Colony Color (Summary): 0
Salmonella spp. (sasp); saty 19430, 21 h
  Colony Color: 0
Salmonella spp. (sasp); satym 14028, 21 h
  Colony Color: 0
[9]
  Colony Color (Summary): +
[9]; cifr 8454, 21 h
  Colony Color: gb
[9]; cifr 33128, 21 h
  Colony Color: gb
[10]
  Color: light blue
[11]
  Colony Color (Summary): +
[11]; 21 h
  Colony Color: gb
S. pneumoniae (stpn)
  Colony Color (Summary): 0
S. pneumoniae (stpn); stpn 1259, CO2, 21 h
  Colony Color: 0
S. pneumoniae (stpn); stpn 1260, CO2, 21 h
  Colony Color: 0
S. pneumoniae (stpn); stpn 1628, CO2, 21 h
  Colony Color: 0
S. pneumoniae (stpn); stpn 6303, CO2, 24 h
  Colony Color: 0
S. pneumoniae (stpn); stpn 6303, air, 24 h
  Colony Color: 0
S. pneumoniae (stpn); stpn 6305, CO2, 24 h
  Colony Color: 0
S. pneumoniae (stpn); stpn 6305, air, 24 h
  Colony Color: 0

## O=C(O)[C@H]1O[C@@H](Oc2c[nH]c3ccc(Br)c(Cl)c23)[C@H](O)[C@@H](O)[C@@H]1O [X-Glucuro, X-Glucuronide]
[1]
  Colony Color (Summary): +
Cakr 34135; CO2, 18 h
  Colony Color: 0
[2]
  Colony Color (Summary): 0
[2]; klpn 13883, 18 h
  Colony Color: 0
[2]; klpn 33495, 18 h
  Colony Color: 0
[2]; klpn 33606, 18 h
  Colony Color: 0
Candida albicans (caal); CO2, 18 h
  Colony Color: 0
Candida albicans (caal)
  Colony Color (Summary): 0
Escherichia coli 25922; Choc II
  Color: blue
Escherichia coli 25922
  Substrates Producing Color: X-Glucuro
Escherichia coli 25922; TSA II 5SB
  Color: blue
Escherichia coli 25922; TSA Plain
  Color: blue
[3]; chromogenic TSA II with 5% Sheep Blood, 0.1 g/l, 5 strains tested
  Colony Color (Summary): 0
[3]; step 12228, CO2
  Colony Color on Various Chromogenic TSA II with 5% Sheep Blood: 0
[3]; step cdc1, CO2
  Colony Color on Various Chromogenic TSA II with 5% Sheep Blood: 0
[3]; step cdc4, CO2
  Colony Color on Various Chromogenic TSA II with 5% Sheep Blood: 0
[3]; stha cdc2, CO2
  Colony Color on Various Chromogenic TSA II with 5% Sheep Blood: 0
[3]; stsa cdc3, CO2
  Colony Color on Various Chromogenic TSA II with 5% Sheep Blood: 0
S pyogenes (stpy); stpy 51339, CO2
  Colony Color on Various Chromogenic TSA II with 5% Sheep Blood: db beta
S pyogenes (stpy); stpy t027, CO2
  Colony Color on Various Chromogenic TSA II with 5% Sheep Blood: 0
S pyogenes (stpy); stpy t028, CO2
  Colony Color on Various Chromogenic TSA II with 5% Sheep Blood: 0
S pyogenes (stpy); stpy t029, CO2
  Colony Color on Various Chromogenic TSA II with 5% Sheep Blood: 0
S pyogenes (stpy); stpy t030, CO2
  Colony Color on Various Chromogenic TSA II with 5% Sheep Blood: 0
[4]; brca 25238, 18 h
  Colony Color: 0
[4]; brca 25240, 18 h
  Colony Color: 0
[4]
  Colony Color (Summary): 0
[5]
  Colony Color (Summary): 0
[5]; psae 9027, 18 h
  Colony Color: 0
[5]; psae 15442, 18 h
  Colony Color: 0
[5]; psae 33607, 18 h
  Colony Color: 0
[6]
  Colony Color (Summary): 0
E. coli 25922; Chocolate II Agar, 24 h, air
  Colony Color: blue (d)
E. coli 25922; [13]
  Colony Color: blue (d)
E. coli 25922; [14]
  Colony Color: blue (m)
E. coli 25922; TSA II 5% Sheep Blood, 5 d, MA
  Colony Color: blue (m)
[7]
  Colony Color (Summary): 0
[7]; stau 25923, CO2, 18 h
  Colony Color: 0
[7]; stau t006, CO2, 18 h
  Colony Color on Various Chromogenic TSA II with 5% Sheep Blood: 0
[7]; stau t007, CO2, 18 h
  Colony Color on Various Chromogenic TSA II with 5% Sheep Blood: 0
[7]; stau t008, CO2, 18 h
  Colony Color on Various Chromogenic TSA II with 5% Sheep Blood: 0
[7]; stau t009, CO2, 18 h
  Colony Color on Various Chromogenic TSA II with 5% Sheep Blood: 0
E. faecium (enfu)
  Colony Color (Summary): 0
E. faecium (enfu); enfu 49032, CO2, 18 h
  Colony Color: 0
[8]
  Substrates Producing Growth Inhibition: Glucuro
S. agalactiae 12386; Chocolate II Agar
  Colony Color: blue (d)
S. agalactiae 12386; TSA II 5% Sheep Blood
  Colony Color: blue (d)
Milu 9341; CO2, 18 h
  Colony Color: ly
Salmonella spp. (sasp)
  Colony Color (Summary): 0
Salmonella spp. (sasp); saty 19430, 18 h
  Colony Color: 0
Salmonella spp. (sasp); satym 14028, 18 h
  Colony Color: 0
[9]
  Colony Color (Summary): 0
[9]; cifr 8454, 18 h
  Colony Color: 0
[9]; cifr 33128, 18 h
  Colony Color: 0
[11]
  Colony Color (Summary): 0
[11]; 18 h
  Colony Color: 0
S. pneumoniae (stpn)
  Colony Color (Summary): 0
S. pneumoniae (stpn); stpn t259, CO2
  Colony Color on Various Chromogenic TSA II with 5% Sheep Blood: 0
S. pneumoniae (stpn); stpn t260, CO2
  Colony Color on Various Chromogenic TSA II with 5% Sheep Blood: 0
S. pneumoniae (stpn); stpn t331, CO2
  Colony Color on Various Chromogenic TSA II with 5% Sheep Blood: 0
S. pneumoniae (stpn); stpn t628, CO2
  Colony Color on Various Chromogenic TSA II with 5% Sheep Blood: 0
[12]
  Growth: >>
